Measured values reported in patent US20090074831A1, “LOCAL […] […] OF mTOR INHIBITORS IN COMBINATION WITH PEROXISOME PROLIFERATORS-ACTIVATED RECEPTOR STIMULATORS” (priority 2007, published 2009).

How the values were obtained:
cell viability = cell viability assay; assay type: cell-based
Description: (§1) The multiple curves represent various concentrations of topotecan ranging from zero to three hundred nanomolar concentrations.
(§2) The multiple curves represent various concentrations of etoposide ranging from zero to eight hundred nanomolar concentrations.

[1] = system: human coronary artery smooth muscle cells; assay: Anti-proliferative activity in synchronized cultured human coronary artery smooth muscle cells stimulated with two percent fetal bovine serum; assay type: cell-based; settings: for effect on anti-proliferative rapamycin dose response curves: leftward and upward shift
Description: as §1, §2
The multiple curves represent various concentrations of Panzem® ranging from zero to 100 micromolar concentrations.

[2] = system: human coronary artery smooth muscle cell; settings: concentrations up to 30,000.00 nanomolar (6.6 to 30,000.00 nanomolar tested)
Description: In vitro cytotoxicity tests or assays may be utilized to determine if drugs, agents and/or compounds are potentially toxic and the level of toxicity. Essentially, in vitro cytotoxicity assays determine acute necrotic effects by a drug causing direct cellular damage. The idea behind these assays is that toxic chemicals affect basic functions of cells which are common to all cells. […] There are a number of different assays that may be utilized. In the present invention, the cytotoxicity assay utilized is based upon the measurement of cellular metabolic activity. A reduction in metabolic activity is an indication of cellular damage. Tests that can measure metabolic function measure cellular ATP levels or mitochondrial activity via MTS metabolism. FIG. 69 is a graphical representation of the results of an MTS assay of Panzem®.

[3] = system: human coronary artery smooth muscle cells; assay: antiproliferative effects of PX867 on cultured human coronary artery smooth muscle cells; assay type: cell-based; settings: PX867 alone, concentration of about 10^−6 (unit not given)
Description: A PI3 kinase inhibitor can affect restinosis when administered by local or systemic delivery alone or in combination with sirolimus. FIGS. 87 and 88 illustrate the antiproliferative effects of PX867 on cultured human coronary artery smooth muscle cells alone (FIG. 87) or in combination with sirolimus (FIG. 88). […] Curve 8702 illustrates the percent inhibition for various concentrations. In FIG. 88, the six curves 8802, 8804, 8806, 8808, 8810 and 8812 represent various concentrations of PX867 with various concentrations of sirolimus. […] More specifically, curve 8812 illustrates the percent inhibition for a 240 nM PX-867 concentration. […] This may be compared to curve 8804 which represents a 15 nM PX-867 concentration. As one can see, the percent inhibition increases as the concentration of sirolimus increases. Accordingly, a potent PI3 kinase inhibitor, such as PX-867, can improve the inhibition of coronary artery smooth muscle cell proliferation either as a stand alone treatment or via combination with another restenotic agent, such as sirolimus.

tumor cell lines = settings: Woo et al., J. Med Chem 2002; cited from earlier work
[4] = system: human coronary artery smooth muscle cell; assay: in vitro cell culture study, coronary artery smooth muscle cell proliferation (trichostatin A); assay type: cell-based
Description: FIG. 51 is a graph of the inhibition of coronary artery smooth muscle cells by trichostatin A in a cell culture study.

[5] = system: human coronary artery smooth muscle cells; assay: Anti-proliferative activity in non-synchronized cultured human coronary artery smooth muscle cells stimulated with two percent fetal bovine serum; assay type: cell-based
Description: The multiple curves represent various concentrations of mycophenolic acid ranging from zero to one thousand nanomolar concentrations.
FIG. 58 illustrates, in graphical format, the anti-proliferative activity of cladribine in non-synchronized cultured human coronary artery smooth muscle cells stimulated with two percent fetal bovine serum.
The multiple curves represent various concentrations of cladribine ranging from zero to nine hundred nanomolar concentrations.

[6] = in vivo release kinetics from rapamycin / cladribine EVA/BMA coating, porcine pharmacokinetics studies; set-up: species or system Yorkshire pigs; settings: EVA/BMA basecoat with 200 microgram BMA topcoat, Bx Velocity stents
Description: The basecoat is applied to Bx Velocity® stents and implanted into Yorkshire pigs.
The basecoat is applied to BxVelocity® stents and implanted into Yorkshire pigs.

[7] = system: human smooth muscle cells; assay: Inhibition of human vascular cell proliferation with cladribine, PDGF-stimulated smooth muscle cells; assay type: cell-based
Experimental: To assess the ability of cladribine to prevent cell proliferation, human smooth muscle or endothelial cells (Clonetics, Walkersville, Md.) were seeded at a density of 2000 cells/cm^2 (approximately 3600 cells/well) into each well of 12-well plates and cultured with 1.5 ml of growth medium containing five percent fetal calf serum (FCS). After twenty-four hours, the growth medium was changed and fresh medium containing 10 ng/ml platelet-derived growth factor AB (PDGF AB; LIFE Technologies), as well as various concentrations of cladribine (0.001-10,000 nM) were added with triplicate wells. Medium was replaced with fresh cladribine-containing medium after three days. On day six, cells were detached by trypsinization to yield a cell suspension, lightly centrifuged to pellet and then counted manually using a Neubauer hemocytometer system. Cell viability was assessed by trypan blue exclusion.

[8] = in vivo release kinetics from rapamycin / mycophenolic acid EVA/BMA coating, porcine pharmacokinetics studies; settings: EVA/BMA basecoat, 180 micrograms each drug, BMA topcoat 0, 100 or 200 micrograms
[9] = in vitro release of sirolimus and cilostazol from dual drug coating; assay type: physicochemical; settings: single-layer sirolimus + cilostazol coating of FIG. 83
[10] = drug concentration in liquid formulations (liquid chromatography / HPLC assay); assay type: physicochemical; settings: 4 mg/ml PEG 200 formulation
Description: In accordance with exemplary embodiments of the present invention, a series of liquid formulations were developed for the local or regional delivery of water insoluble compounds such as sirolimus and its analogs, including CCl-779, ABT-578 and everolimus, through weeping balloons and catheter injection needles. […] These liquid formulations increase the apparent solubility of the pharmacologically active but water insoluble compounds by two to four orders of magnitude as compared to the solubility limits of the compounds in water. These liquid formulations rely on the use of a very small amount of organic solvents such as Ethanol (typically less than two percent) and a larger amount of safe amphiphilic (of or relating to a molecule having a polar, water soluble group attached to a non-polar, water insoluble […]) excipients such as polyethylene glycol (PEG 200, PEG 400) and vitamin E TPGS to enhance the solubility of the compounds. These liquid formulations of highly water insoluble compounds are stable and readily flowable at room temperature. Certain excipients, such as Vitamin E TPGS and BHT may be utilized to enhance the storage stability of sirolimus compounds through their anti-oxidation properties. […]

## COc1cc([C@@H]2c3cc4c(cc3[C@@H](O[C@@H]3O[C@@H]5CO[C@@H](C)O[C@H]5[C@H](O)[C@H]3O)[C@H]3COC(=O)[C@H]23)OCO4)cc(OC)c1O [etoposide]
Cell viability; concentrations up to ten micromolar
  cytotoxicity: non-cytotoxic
[1]; etoposide zero to eight hundred nanomolar added to rapamycin
  effect on anti-proliferative rapamycin dose response curves: potentiate the anti-proliferative activity of rapamycin

## COc1cc2c(cc1O)CC[C@@H]1[C@@H]2CC[C@]2(C)[C@@H](O)CC[C@@H]12 [Panzem®, 2-methoxyestradiol]
[2]
  cytotoxicity (MTS assay), cell survival: do not reduce human coronary artery smooth muscle cell survival
[1]; Panzem alone
  anti-proliferative activity: extremely effective inhibitor of human coronary artery smooth muscle cell proliferation in vitro
[1]; Panzem zero to 100 micromolar added to rapamycin
  effect on percent inhibition by rapamycin: increases the percent of inhibition of rapamycin alone

## CC[C@@]1(O)C(=O)OCc2c1cc1n(c2=O)Cc2cc3c(CN(C)C)c(O)ccc3nc2-1 [topotecan]
Cell viability; concentrations up to one micromolar
  cytotoxicity: non-cytotoxic
[1]; topotecan zero to three hundred nanomolar added to rapamycin
  effect on anti-proliferative rapamycin dose response curves: does in fact potentiate the anti-proliferative activity of rapamycin

## COC[C@H]1OC(=O)/C(=C\N2CCCC2)C2=C(O)C(=O)C3=C([C@H](OC(C)=O)C[C@]4(C)C(=O)CC[C@@H]34)[C@]21C [PX867]
[3]
  inhibition of coronary artery smooth muscle cell proliferation: one hundred

## CC(/C=C/C(=O)NO)=C\[C@@H](C)C(=O)c1ccc(N(C)C)cc1 [trichostatin A]
Tumor cell lines
  anti-proliferative IC50's: low nM range
[4]
  inhibition of human coronary artery smooth muscle cell proliferation: completely inhibit human coronary artery smooth muscle cell proliferation
[4]; read-out: anti-proliferative IC50
  IC50: ~6 nM

## Nc1nc(Cl)nc2c1ncn2[C@H]1C[C@H](O)[C@@H](CO)O1 [Cladribine, 2-chlorodeoxyadenosine]
[5]; cladribine alone
  inhibition of human coronary artery smooth muscle cell proliferation: completely inhibits human coronary artery smooth muscle cell proliferation
[5]; cladribine zero to nine hundred nanomolar added to rapamycin, leftward and upward shift
  effect on anti-proliferative rapamycin dose response curves: does in fact potentiate the anti-proliferative activity of rapamycin
[6]
  in vivo elution compared with rapamycin: elutes more rapidly than rapamycin
[7]
  potency as inhibitor of smooth muscle cells relative to endothelial cells: approximately twice

## COc1c(C)c2c(c(O)c1C/C=C(\C)CCC(=O)O)C(=O)OC2 [mycophenolic acid]
[5]; mycophenolic acid zero to one thousand nanomolar added to rapamycin, leftward and upward shift
  effect on anti-proliferative rapamycin dose response curve: potentiates the anti-proliferative activity of rapamycin
[8]
  in vivo elution compared with rapamycin: elutes more completely over a shorter duration than the rapamycin

## O=C1CCc2cc(OCCCCc3nnnn3C3CCCCC3)ccc2N1 [cilostazol, 6[4-(1-cyclohexyl-1H-tetrazol-5-yl)-butoxy]-3,4-dihydro-2-(1H)-quinolinone]
[9]
  in vitro release: ~35%

## CO[C@H]1C[C@@H]2CC[C@@H](C)[C@@](O)(O2)C(=O)C(=O)N2CCCC[C@H]2C(=O)O[C@H]([C@H](C)C[C@@H]2CC[C@@H](O)[C@H](OC)C2)CC(=O)[C@H](C)/C=C(\C)[C@@H](O)[C@@H](OC)C(=O)[C@H](C)C[C@H](C)/C=C/C=C/C=C/1C [rapamycin]
[10]
  concentration relative to the solubility of sirolimus in water: four hundred to about one thousand
